Values of other authors in patent US7410504B2, “Adducts based on cyclic compounds and the use thereof as tanning agents and curing agents” (BASF Aktiengesellschaft, priority 2003, dated 2008).

Conditions: small amounts of glutaraldehyde, from 0.5 to 0.9% by weight based on the pelt weight

- Shrinkage temperature: ≤ 70 °C
Compound: O=CCCCC=O [glutaraldehyde]
